Experimental data from patent US20170320848A1, “COMPOUNDS FOR USE IN ANTHELMINTHIC TREATMENT” (Bayer Animal Health GMBH, priority 2014, published 2017).

Tested on: not listed separately
Test: Measurement of LogP values by HPLC on reversed phase columns (EEC directive 79/831 Annex V.A8)
Format: physicochemical
Conditions: acidic range, 0.1% formic acid in water and acetonitrile as eluent

In order of falling “logP (HCOOH)[a]” value:
1. Cc1cc(-c2cc(Cl)c(F)c(Cl)c2)ccc1C(F)(F)CNC(=O)c1ccccc1C(F)(F)F [Example 128]  5.08
2. O=C(NCC(F)(F)c1ccc(-c2ccc(N3CCCC3)cc2)cc1Cl)c1ccccc1C(F)(F)F [Example 78]  5.08
3. O=C(NCC(F)(F)c1ccc(-c2ccc(OC(F)(F)F)c(F)c2)cc1Cl)c1ccccc1C(F)(F)F [Example 106]  4.8
4. O=C(NCC(F)(F)c1ccc(-c2cc(F)c(Cl)c(F)c2)cc1Cl)c1ccccc1C(F)(F)F [Example 110]  4.77
5. Cc1cc(-c2ccc(OC(F)(F)F)cc2)ccc1C(F)(F)CNC(=O)c1ccccc1C(F)(F)F [Example 76]  4.68
6. O=C(NCC(F)(F)c1ccc(-c2ccc(OC(F)(F)F)cc2)cc1Cl)c1ccccc1C(F)(F)F [Example 39]  4.67
7. Cc1cc(-c2ccc(C(F)(F)F)cc2)ccc1C(F)(F)CNC(=O)c1ccccc1C(F)(F)F [Example 88]  4.62
8. O=C(NCC(F)(F)c1ccc(-c2cccc(OC(F)(F)F)c2)cc1Cl)c1ccccc1C(F)(F)F [Example 42]  4.61
9. O=C(NCC(F)(F)c1ccc(-c2ccc3c(c2)OC(F)(F)O3)cc1Cl)c1ccccc1C(F)(F)F [Example 71]  4.57
10. O=C(NCC(F)(F)c1c(F)cc(-c2ccc(OC(F)(F)F)cc2)cc1F)c1ccccc1C(F)(F)F [Example 48]  4.56
11. O=C(NCC(F)(F)c1ccc(-c2ccc(C(F)(F)F)cc2)cc1Cl)c1ccccc1C(F)(F)F [Example 41]  4.56
12. O=C(NCC(F)(F)c1ccc(-c2cccc(C(F)(F)F)c2)cc1Cl)c1ccccc1C(F)(F)F [Example 67]  4.55
13. N#Cc1cc(-c2ccc(SC(F)(F)F)cc2)ccc1C(F)(F)CNC(=O)c1ccccc1C(F)(F)F [Example 83]  4.5
14. COc1cc(-c2ccc(OC(F)(F)F)cc2)ccc1C(F)(F)CNC(=O)c1ccccc1C(F)(F)F [Example 77]  4.42
15. O=C(NCC(F)(F)c1c(F)cc(-c2ccc(C(F)(F)F)cc2)cc1F)c1ccccc1C(F)(F)F [Example 86]  4.38
16. O=C(NCC(F)(F)c1ccc(-c2cc(F)c(F)c(F)c2)cc1Cl)c1ccccc1I [Example 114]  4.34
17. COc1cc(-c2ccc(C(F)(F)F)cc2)ccc1C(F)(F)CNC(=O)c1ccccc1C(F)(F)F [Example 87]  4.33
18. O=C(NCC(F)(F)c1ccc(-c2ccc(S(=O)(=O)C(F)(F)F)cc2)cc1Cl)c1ccccc1C(F)(F)F [Example 45]  4.32
19. O=C(NCC(F)(F)c1ccc(-c2cc(F)c(F)c(F)c2)cc1Cl)c1ccccc1Br [Example 116]  4.28
20. N#Cc1cc(-c2ccc(OC(F)(F)F)cc2)ccc1C(F)(F)CNC(=O)c1ccccc1C(F)(F)F [Example 72]  4.23
21. COc1cc(-c2cc(F)c(F)c(F)c2)ccc1C(F)(F)CNC(=O)c1ccccc1C(F)(F)F [Example 118]  4.23
22. O=C(NCC(F)(F)c1ccc(-c2cc(F)c(OC(F)F)c(F)c2)cc1Cl)c1ccccc1C(F)(F)F [Example 66]  4.20
23. O=C(NCC(F)(F)c1ccc(-c2ccc(F)cc2)cc1Cl)c1ccccc1I [Example 57]  4.17
24. Cc1cc(-c2cccc(C(F)F)c2)ccc1C(F)(F)CNC(=O)c1ccccc1C(F)(F)F [Example 90]  4.07
25. N#Cc1cc(-c2ccc(C(F)(F)F)cc2)ccc1C(F)(F)CNC(=O)c1ccccc1C(F)(F)F [Example 85]  4.07
26. Cc1cc(-c2ccc(C(F)F)cc2)ccc1C(F)(F)CNC(=O)c1ccccc1C(F)(F)F [Example 80]  4.06
27. O=C(NCC(F)(F)c1ccc(-c2ccc(N3CCOCC3)c(F)c2)cc1Cl)c1ccccc1C(F)(F)F [Example 113]  4.05
28. O=C(NCC(F)(F)c1ccc(-c2ccc(F)cc2)cc1Cl)c1ccccc1Br [Example 58]  4.05
29. O=C(NCC(F)(F)c1ccc(-c2cc(F)c(F)c(F)c2)cc1Cl)c1nccnc1C(F)(F)F [Example 111]  4.05
30. O=C(NCC(F)(F)c1ccc(-c2ccc(F)cc2)cc1Cl)c1ccccc1Cl [Example 59]  4.0
31. O=C(NCC(F)(F)c1ccc(-c2ccc(C(F)F)cc2)cc1Cl)c1ccccc1C(F)(F)F [Example 40]  3.99
32. O=C(NCC(F)(F)c1c(F)cc(-c2ccc(C(F)F)cc2)cc1F)c1ccccc1C(F)(F)F [Example 81]  3.9
33. N#Cc1cc(-c2cc(F)c(F)c(F)c2)ccc1C(F)(F)CNC(=O)c1ccccc1C(F)(F)F [Example 107]  3.89
34. O=C(NCC(F)(F)c1ccc(-c2ccc([S+]([O-])C(F)(F)F)cc2)cc1Cl)c1ccccc1C(F)(F)F (stereo not shown) [Example 56]  3.87
35. O=C(NCC(F)(F)c1c(F)cc(-c2cccc(C(F)F)c2)cc1F)c1ccccc1C(F)(F)F [Example 82]  3.83
36. O=C(NCC(F)(F)c1ccc(-c2ccc(N3CCOCC3)cc2)cc1Cl)c1ccccc1C(F)(F)F [Example 75]  3.83
37. COc1cc(-c2cccc(C(F)F)c2)ccc1C(F)(F)CNC(=O)c1ccccc1C(F)(F)F [Example 92]  3.81
38. N#Cc1cc(-c2ccc(C(F)(F)CNC(=O)c3ccccc3C(F)(F)F)c(Cl)c2)ccc1F [Example 96]  3.81
39. COc1cc(-c2ccc(C(F)F)cc2)ccc1C(F)(F)CNC(=O)c1ccccc1C(F)(F)F [Example 91]  3.81
40. N#Cc1ccc(-c2ccc(C(F)(F)CNC(=O)c3ccccc3C(F)(F)F)c(Cl)c2)c(F)c1 [Example 93]  3.76
41. N#Cc1cc(-c2ccc(F)cc2)ccc1C(F)(F)CNC(=O)c1ccccc1C(F)(F)F [Example 74]  3.63
42. N#Cc1cc(-c2cccc(C(F)F)c2)ccc1C(F)(F)CNC(=O)c1ccccc1C(F)(F)F [Example 79]  3.59
43. N#Cc1cc(-c2ccc(C(F)F)cc2)ccc1C(F)(F)CNC(=O)c1ccccc1C(F)(F)F [Example 89]  3.59
44. N#Cc1ccc(-c2cc(F)c(C(F)(F)CNC(=O)c3ccccc3C(F)(F)F)c(F)c2)cc1 [Example 46]  3.53
45. COc1cc(-c2ccc(C#N)cc2)ccc1C(F)(F)CNC(=O)c1ccccc1C(F)(F)F [Example 51]  3.43
46. CC(=O)N1CCN(c2ccc(-c3ccc(C(F)(F)CNC(=O)c4ccccc4C(F)(F)F)c(Cl)c3)cc2)CC1 [Example 104]  3.17
47. CN1CCN(c2ccc(-c3ccc(C(F)(F)CNC(=O)c4ccccc4C(F)(F)F)c(Cl)c3)cc2)CC1 [Example 84]  1.84
48. N#Cc1ccc(-c2ccc(C(F)(F)CNC(=O)c3ccccc3C(F)(F)F)c(C#N)c2)cc1 [Example 73]  1.33

Same assay, conditions: reversed phase HPLC columns, acidic range, 0.1% formic acid in water and acetonitrile as eluent, read-out: logP (HCOOH)[a]

In order of falling chromatographic logP:
1. CN(C)c1ccc(-c2ccc(C(F)(F)CNC(=O)c3ccccc3C(F)(F)F)c(Cl)c2)cc1 [Example 28]  4.28
2. CNc1ccc(-c2ccc(C(F)(F)CNC(=O)c3ccccc3C(F)(F)F)c(Cl)c2)cc1 [Example 29]  3.59
3. CS(=O)(=O)c1ccc(-c2ccc(C(F)(F)CNC(=O)c3ccccc3C(F)(F)F)c(Cl)c2)cc1 [Example 24]  2.99
4. CC(=O)Nc1ccc(-c2ccc(C(F)(F)CNC(=O)c3ccccc3C(F)(F)F)c(Cl)c2)cc1 [Example 30]  2.93
5. NCC(F)(F)c1ccc(-c2ccc(F)cc2)cc1Cl [Example VII-1, 2-[2-chloro-4-(4-fluorophenyl)phenyl]-2,2-difluoro-ethanamine]  1.35

Same assay, conditions: reversed phase HPLC columns, neutral range, 0.001 molar ammonium acetate solution in water and acetonitrile as eluent, read-out: LogP[b]

`NCC(F)(F)c1ccc(-c2ccc(F)cc2)cc1Cl` [Example VII-1, 2-[2-chloro-4-(4-fluorophenyl)phenyl]-2,2-difluoro-ethanamine] showed a chromatographic logP of 3.1.

Tested on: Cooperia curticei
Test: Cooperia curticei assay (COOPCU), larval mortality
Format: cell-based
Conditions: Cooperia curticei, 120 h; application rate 20 ppm, after 5 days; read-out: activity (percentage of larval mortality)
Experimental: Cooperia Curticei—Assay (COOPCU)
Solvent: dimethyl sulfoxide
To produce a suitable preparation, 10 mg of active compound are dissolved in 0.5 ml solvent, and the concentrate is diluted with “Ringer's solution” to the desired concentration.
Approximately 40 nematode larvae (Cooperia curticei) are transferred into a test tube containing the compound solution.
After 5 days percentage of larval mortality is recorded. 100% efficacy means all larvae are killed; 0% efficacy means no larvae are killed.

In order of rising mortality at 20 ppm:
1. CNc1ccc(-c2ccc(C(F)(F)CNC(=O)c3ccccc3C(F)(F)F)c(Cl)c2)cc1 [Example 29]  80%
2. COc1ccc(-c2ccc(C(F)(F)CNC(=O)c3ccccc3C(F)(F)F)c(F)c2)cc1 [Example 6]  80%
3. CN(C)c1ccc(-c2ccc(C(F)(F)CNC(=O)c3ccccc3C(F)(F)F)c(Cl)c2)cc1 [Example 28]  80%
4. CN(C)c1ccc(-c2ccc(C(F)(F)CNC(=O)c3ccccc3C(F)(F)F)c(C(F)(F)F)c2)cc1 [Example 10]  80%

Same assay, conditions: application rate 20 ppm, after 5 days

In order of rising “activity (percentage of larval mortality)” value:
1. N#Cc1cc(-c2cccc(C(F)F)c2)ccc1C(F)(F)CNC(=O)c1ccccc1C(F)(F)F [Example 79]  80%
2. COc1cc(-c2ccc(C(F)F)cc2)ccc1C(F)(F)CNC(=O)c1ccccc1C(F)(F)F [Example 91]  80%
3. N#Cc1cc(-c2ccc(F)cc2)ccc1C(F)(F)CNC(=O)c1ccccc1C(F)(F)F [Example 74]  90%
4. COc1cc(-c2ccc(C#N)cc2)ccc1C(F)(F)CNC(=O)c1ccccc1C(F)(F)F [Example 51]  90%
5. COc1cc(-c2ccc(C(F)(F)F)cc2)ccc1C(F)(F)CNC(=O)c1ccccc1C(F)(F)F [Example 87]  90%
6. O=C(NCC(F)(F)c1ccc(-c2ccc(N3CCCC3)cc2)cc1Cl)c1ccccc1C(F)(F)F [Example 78]  90%
